Test results taken from patent publication US5591891A, “N-[Mercaptoacyl (amino acid or peptide ) ] compounds and S-lipophiIic aliphatic carbonyl derivatives thereof as antihypertensives” (Institut National de la Sante et de la Recherche Medicale …, priority 1994, dated 1997).

Legend:
[1] = molecular target: neutral endopeptidase (NEP) (Homo sapiens, UniProt P08473); assay: Enzymatic inhibition of neutral endopeptidase, [3H]D-Ala2-Leu-enkephalin as substrate; format: biochemical
Procedure: The enzymatic inhibitory properties of compounds according to the present invention are measured using [^3 H]D-Ala^2 -Leu-enkephalin as a substrate for neutral endopeptidase as described previously by Llorens et al., Biochem. Biophys.

[2] = molecular target: peptidyldipeptidase A (ACE) (Homo sapiens, UniProt P12821); assay: Enzymatic inhibition of peptidyldipeptidase A, Z-Phe-His-Leu as substrate; format: biochemical
Sequence of peptidyldipeptidase A (ACE) (P12821 30-1306, species assumed): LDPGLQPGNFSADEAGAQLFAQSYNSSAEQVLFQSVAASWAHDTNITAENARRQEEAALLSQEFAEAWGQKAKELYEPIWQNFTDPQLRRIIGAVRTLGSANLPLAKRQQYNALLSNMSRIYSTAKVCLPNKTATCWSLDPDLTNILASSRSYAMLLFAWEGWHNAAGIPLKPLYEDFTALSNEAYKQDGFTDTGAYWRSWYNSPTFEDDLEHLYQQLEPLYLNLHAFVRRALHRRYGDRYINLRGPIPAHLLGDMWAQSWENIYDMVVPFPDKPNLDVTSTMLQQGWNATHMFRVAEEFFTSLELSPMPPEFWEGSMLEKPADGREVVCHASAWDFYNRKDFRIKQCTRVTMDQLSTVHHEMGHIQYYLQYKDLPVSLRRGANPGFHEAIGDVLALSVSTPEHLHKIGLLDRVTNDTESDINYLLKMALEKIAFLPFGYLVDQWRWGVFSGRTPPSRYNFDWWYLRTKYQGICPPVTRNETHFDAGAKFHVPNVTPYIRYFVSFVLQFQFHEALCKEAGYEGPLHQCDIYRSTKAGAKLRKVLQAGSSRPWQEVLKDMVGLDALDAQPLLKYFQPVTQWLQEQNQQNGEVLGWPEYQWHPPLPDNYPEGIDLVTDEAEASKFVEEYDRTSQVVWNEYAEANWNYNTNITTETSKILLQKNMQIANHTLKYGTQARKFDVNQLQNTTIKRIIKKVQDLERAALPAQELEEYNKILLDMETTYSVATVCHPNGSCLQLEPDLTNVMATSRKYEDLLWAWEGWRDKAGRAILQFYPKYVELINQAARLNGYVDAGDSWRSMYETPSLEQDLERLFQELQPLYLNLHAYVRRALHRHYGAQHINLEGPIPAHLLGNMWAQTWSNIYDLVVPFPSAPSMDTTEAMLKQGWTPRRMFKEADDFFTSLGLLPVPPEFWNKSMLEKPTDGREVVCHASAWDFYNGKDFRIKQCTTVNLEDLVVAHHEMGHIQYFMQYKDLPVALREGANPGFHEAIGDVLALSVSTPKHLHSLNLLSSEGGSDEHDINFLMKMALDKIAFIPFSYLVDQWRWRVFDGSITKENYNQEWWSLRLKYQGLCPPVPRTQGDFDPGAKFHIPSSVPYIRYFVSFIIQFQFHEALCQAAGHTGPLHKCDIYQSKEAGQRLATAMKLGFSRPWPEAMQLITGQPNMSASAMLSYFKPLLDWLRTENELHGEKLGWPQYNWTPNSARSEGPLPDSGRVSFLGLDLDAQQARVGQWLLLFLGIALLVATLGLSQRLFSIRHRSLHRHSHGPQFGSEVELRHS

[3] = molecular target: T1, NEP (Mus musculus, UniProt Q61391); assay: In vivo inhibition of NEP in mouse kidney after oral administration ([3H]HACBOGly binding); details: oral 2.6×10^-5 mole/kg, mean of three determinations
T1 construct: the kidney is rapidly set apart and homogenized at 4° C. in a Tris HCl buffer; from tissue; host or cells: mouse kidney (in vivo, then homogenate)
T1 sequence (Q61391 1-750): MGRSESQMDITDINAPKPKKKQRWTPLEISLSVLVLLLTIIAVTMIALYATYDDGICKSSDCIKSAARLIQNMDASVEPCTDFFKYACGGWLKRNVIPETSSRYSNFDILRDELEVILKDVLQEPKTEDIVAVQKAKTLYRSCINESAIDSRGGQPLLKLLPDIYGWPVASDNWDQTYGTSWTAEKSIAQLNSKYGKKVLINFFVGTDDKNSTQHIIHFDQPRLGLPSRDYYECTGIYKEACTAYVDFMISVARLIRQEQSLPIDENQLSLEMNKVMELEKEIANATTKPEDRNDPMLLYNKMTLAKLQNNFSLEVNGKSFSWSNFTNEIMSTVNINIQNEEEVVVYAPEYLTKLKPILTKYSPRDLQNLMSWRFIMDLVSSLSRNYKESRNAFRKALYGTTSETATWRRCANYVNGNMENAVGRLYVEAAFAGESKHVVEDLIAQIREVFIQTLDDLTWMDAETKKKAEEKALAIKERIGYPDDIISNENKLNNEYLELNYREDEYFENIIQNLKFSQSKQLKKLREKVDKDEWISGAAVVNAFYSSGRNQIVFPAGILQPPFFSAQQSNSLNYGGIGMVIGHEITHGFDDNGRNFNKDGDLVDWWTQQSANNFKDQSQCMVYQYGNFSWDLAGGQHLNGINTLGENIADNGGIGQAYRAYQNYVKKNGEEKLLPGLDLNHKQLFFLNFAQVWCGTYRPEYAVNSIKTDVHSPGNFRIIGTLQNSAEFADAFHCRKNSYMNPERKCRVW
Text: (§1) [S,S,S]-N-[2-Adamantoylthiomethyl-1-oxo-3-phenylbutyl]alanine, a diastereomeric mixture of N-[2-acetylthiomethyl-1-oxo-3-phenylbutyl]alanine (four diastereomers) and a control solution of saline are orally administered at a concentration of 2.6×10^-5 mole/kg) in mice at t=o.
(§2) The inhibition of NEP in the kidney is expressed as the difference (in %) between specific [^3 H]HACBOGly binding in the absence of inhibitor (controls injected with saline) and in the presence of inhibitor. The inhibition values in Table V are the mean value of three determinations.

[4] = molecular target: T2, ACE (Mus musculus, UniProt P09470); assay: In vivo inhibition of ACE in mouse after oral administration ([3H]Trandaloprilate binding); details: oral 2.6×10^-5 mole/kg, mean of three determinations
T2 construct: from tissue; host or cells: mouse tissue in vivo
T2 sequence (P09470 35-1312): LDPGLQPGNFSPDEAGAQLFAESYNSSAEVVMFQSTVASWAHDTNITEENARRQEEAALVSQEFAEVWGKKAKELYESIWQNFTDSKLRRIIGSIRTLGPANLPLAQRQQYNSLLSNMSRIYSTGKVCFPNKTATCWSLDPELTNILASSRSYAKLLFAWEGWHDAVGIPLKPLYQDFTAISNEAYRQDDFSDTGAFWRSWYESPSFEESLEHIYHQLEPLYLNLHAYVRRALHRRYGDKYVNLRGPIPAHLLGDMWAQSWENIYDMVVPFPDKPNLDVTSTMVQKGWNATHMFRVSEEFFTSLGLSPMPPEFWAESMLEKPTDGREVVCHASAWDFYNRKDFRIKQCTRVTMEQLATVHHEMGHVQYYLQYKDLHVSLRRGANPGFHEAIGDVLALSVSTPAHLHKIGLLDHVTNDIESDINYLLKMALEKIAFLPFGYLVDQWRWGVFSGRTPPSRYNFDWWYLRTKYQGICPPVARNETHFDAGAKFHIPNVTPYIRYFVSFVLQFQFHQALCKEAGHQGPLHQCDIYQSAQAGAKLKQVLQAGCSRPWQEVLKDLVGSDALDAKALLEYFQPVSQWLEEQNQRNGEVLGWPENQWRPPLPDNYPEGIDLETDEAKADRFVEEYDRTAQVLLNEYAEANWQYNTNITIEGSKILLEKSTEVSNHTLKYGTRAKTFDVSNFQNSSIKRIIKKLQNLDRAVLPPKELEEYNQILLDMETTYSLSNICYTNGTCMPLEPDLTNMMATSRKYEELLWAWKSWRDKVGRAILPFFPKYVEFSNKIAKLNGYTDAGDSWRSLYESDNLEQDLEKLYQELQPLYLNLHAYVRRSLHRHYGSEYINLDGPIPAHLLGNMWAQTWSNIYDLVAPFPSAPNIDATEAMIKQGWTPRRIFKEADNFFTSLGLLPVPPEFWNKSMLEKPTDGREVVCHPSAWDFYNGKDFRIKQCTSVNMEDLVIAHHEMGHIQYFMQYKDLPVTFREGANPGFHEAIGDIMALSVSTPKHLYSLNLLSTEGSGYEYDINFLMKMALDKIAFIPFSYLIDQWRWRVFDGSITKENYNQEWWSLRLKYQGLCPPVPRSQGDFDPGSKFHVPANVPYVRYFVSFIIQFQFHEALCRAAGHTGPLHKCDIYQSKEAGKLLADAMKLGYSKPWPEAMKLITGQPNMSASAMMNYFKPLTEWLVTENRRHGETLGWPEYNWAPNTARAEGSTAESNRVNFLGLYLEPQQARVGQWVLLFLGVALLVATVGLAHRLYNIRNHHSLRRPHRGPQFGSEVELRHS
Text: as §1, §2
The protocol in Example 91 is used also to determine […] inhibition except for the following: the selective tritiated ACE inhibitor is [^3 H]Trandaloprilate (0.5 μCi); and the non-specific binding is determined by the co-administration of [^3 H]Trandaloprilate with 1000 eq. of captopril.

Sequence of neutral endopeptidase (NEP) (P08473 whole entry, species assumed): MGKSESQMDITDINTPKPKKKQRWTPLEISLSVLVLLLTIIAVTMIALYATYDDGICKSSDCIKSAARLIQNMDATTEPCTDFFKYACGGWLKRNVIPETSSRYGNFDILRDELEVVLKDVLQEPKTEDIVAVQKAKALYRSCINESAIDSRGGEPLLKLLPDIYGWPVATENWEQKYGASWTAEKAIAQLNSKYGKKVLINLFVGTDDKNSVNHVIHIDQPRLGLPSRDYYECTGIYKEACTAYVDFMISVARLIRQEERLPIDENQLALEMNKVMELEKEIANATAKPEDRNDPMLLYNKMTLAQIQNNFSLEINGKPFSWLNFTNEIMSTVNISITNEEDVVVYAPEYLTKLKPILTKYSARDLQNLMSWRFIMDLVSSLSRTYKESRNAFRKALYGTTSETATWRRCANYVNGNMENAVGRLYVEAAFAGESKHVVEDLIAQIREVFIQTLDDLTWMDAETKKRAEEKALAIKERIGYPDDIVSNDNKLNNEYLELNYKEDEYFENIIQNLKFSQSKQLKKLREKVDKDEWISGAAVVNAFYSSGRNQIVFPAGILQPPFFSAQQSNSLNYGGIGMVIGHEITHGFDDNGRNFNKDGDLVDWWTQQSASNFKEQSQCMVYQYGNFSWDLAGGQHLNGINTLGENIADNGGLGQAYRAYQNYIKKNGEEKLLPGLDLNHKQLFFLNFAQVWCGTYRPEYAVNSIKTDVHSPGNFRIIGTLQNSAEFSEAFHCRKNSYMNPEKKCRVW

Structure (SMILES)	IC50 ([1]; Table IV)	IC50 ([2]; Table IV)	IC50 ([1]; Table III)	IC50 ([2]; Table III)	other results
CC(c1ccccc1)C(CSS)C(=O)N[C@@H](Cc1ccc(O)cc1)C(=O)O (stereo partly drawn) [88(B), N-(2-mercaptothiomethyl-1-oxo-3-phenylbutyl)tyrosine]	3.1 nM	52 nM	–	–	–
C[C@H](NC(=O)[C@@H](CSC(=O)C12CC3CC(CC(C3)C1)C2)[C@H](C)c1ccccc1)C(=O)O [91(A), [S,S,S]--N-[2-adamantoylthiomethyl-1-oxo-3-phenylbutyl]alanine]	–	–	–	–	% Inhibition NEP ([3]; time 30 min): 85%; % Inhibition NEP ([3]; time 240 min): 70%; % Inhibition ACE ([4]; time 30 min): 75%; % Inhibition ACE ([4]; time 240 min): 30%
CC(=O)SCC(C(=O)N[C@@H](C)C(=O)O)C(C)c1ccccc1 (stereo partly drawn) [91(B), N-[2-acetylthiomethyl-1-oxo-3-phenylbutyl]alanine]	–	–	–	–	% Inhibition NEP ([3]; time 30 min): 65%; % Inhibition NEP ([3]; time 240 min): 45%; % Inhibition ACE ([4]; time 30 min): 30%; % Inhibition ACE ([4]; time 240 min): 15%
CC(C)[C@H](NC(=O)C(S)Cc1ccccc1)C(=O)N[C@@H](Cc1ccc(O)cc1)C(=O)O (stereo partly drawn) [Example 19, N-(2-Mercapto-3-phenylpropanoyl)-Val-Tyr]	–	–	5 ± 2 nM	4 ± 1 nM	–
CC[C@H](C)[C@H](NC(=O)C(S)Cc1ccccc1)C(=O)N[C@@H](Cc1ccc(O)cc1)C(=O)OC (stereo partly drawn) [Example 20, N-(2-Mercapto-3-phenylpropanoyl)-Ile-Tyr-OMe]	–	–	3.2 ± 0.3 nM	2.5 ± 0.1 nM	–
CCC(C)C(NC(=O)C(S)Cc1ccccc1)C(=O)N1CCCCC1C(=O)O (stereo not drawn) [Example 21, N-(2-Mercapto-3-phenylpropanoyl)-Ile-Pip]	–	–	5 ± 2 nM	2 ± 1 nM	–
CCCC[C@H](NC(=O)C(S)Cc1ccccc1)C(=O)N[C@@H](Cc1ccc(O)cc1)C(=O)O (stereo partly drawn) [Example 22, N-(2-Mercapto-3-phenylpropanoyl)-Nle-Tyr]	–	–	18 ± 2 nM	30 ± 5 nM	–
CC(C)C[C@H](NC(=O)C(S)Cc1ccccc1)C(=O)N[C@@H](Cc1ccc(O)cc1)C(=O)O (stereo partly drawn) [Example 23, N-(2-Mercapto-3-phenylpropanoyl)-Leu-Tyr]	–	–	3 ± 2 nM	30 ± 5 nM	–
CCC(C)C(S)C(=O)N[C@@H](Cc1ccccc1)C(=O)N[C@@H](Cc1ccc(O)cc1)C(=O)O (stereo partly drawn) [Example 24, N-(2-Mercapto-3-methylpentanoyl)-Phe-Tyr]	–	–	3 ± 1 nM	8 ± 2 nM	–
CCC(C)C(S)C(=O)NC(C(=O)N[C@@H](Cc1ccc(O)cc1)C(=O)O)C(C)C (stereo partly drawn) [Example 25, N-(2-Mercapto-3-methylpentanoyl)-Val-Tyr]	–	–	5 ± 2 nM	2 ± 0.5 nM	–
CC(C)C(NC(=O)C(S)CCc1ccccc1)C(=O)N[C@@H](Cc1ccc(O)cc1)C(=O)O (stereo partly drawn) [Example 26, N-(2-Mercapto-4-phenylbutanoyl)-Val-Tyr]	–	–	10 ± 1 nM	8 ± 2 nM	–

Further lines, with some results ahead:

IC50 ([1]; Table IV)	IC50 ([2]; Table IV)	IC50 ([1]; Table III)	IC50 ([2]; Table III)	Structure (SMILES)	other results
–	–	1.4 ± 0.2 nM	0.3 ± 0.1 nM	CC[C@H](C)[C@H](NC(=O)C(S)C(C)C)C(=O)N[C@@H](Cc1ccc(O)cc1)C(=O)O (stereo partly drawn) [Example 27, N-(2-Mercapto-3-methylbutanoyl)-Ile-Tyr]	–
–	–	4.5 ± 0.5 nM	3.5 ± 0.5 nM	CC[C@H](C)[C@H](NC(=O)C(S)c1ccccc1)C(=O)N[C@@H](Cc1ccc(O)cc1)C(=O)O (stereo partly drawn) [Example 28, N-(2-Mercapto-2-phenylacetyl)-Ile-Tyr]	–
–	1.8 nM	–	–	CC(c1ccccc1)C(CS)C(=O)N[C@@H](Cc1ccc(O)cc1)C(=O)O (stereo partly drawn) [Example 61, N-(2-Mercaptomethyl-1-oxo-3-phenylbutyl)tyrosine]	–
1.3 nM	25 nM	–	–	CC(c1ccccc1)C(CS)C(=O)NCC(=O)O (stereo not drawn) [Example 63, N-(2-Mercaptomethyl-1-oxo-3-phenylbutyl)glycine]	–
4 nM	71 nM	–	–	CC(c1ccccc1)C(CS)C(=O)N[C@@H](COCc1ccccc1)C(=O)O (stereo partly drawn) [Example 65, N-(2-Mercaptomethyl-1-oxo-3-phenylbutyl)-O-benzylserine]	–
2 nM	2.8 nM	–	–	CC(c1ccccc1)C(CS)C(=O)N[C@@H](C)C(=O)O (stereo partly drawn) [Example 67, N-(2-Mercaptomethyl-1-oxo-3-phenylbutyl)alanine]	–
–	5.8 nM	–	–	CCCC[C@H](NC(=O)C(CS)C(C)c1ccccc1)C(=O)O (stereo partly drawn) [Example 69, N-(2-Mercaptomethyl-1-oxo-3-phenylbutyl)norleucine]	–
1.3 nM	7.9 nM	–	–	C[C@H](NC(=O)C(CS)C1CCc2ccccc21)C(=O)O (stereo partly drawn) [Example 71, N-[3-Mercapto-2-(1-indanyl)-1-oxopropyl]alanine]	–
3.5 nM	6.2 nM	–	–	CC(c1ccc(O)cc1)C(CS)C(=O)N[C@@H](C)C(=O)O (stereo partly drawn) [Example 73, N-[2-Mercaptomethyl,3-(4-hydroxyphenyl)-1-oxobutyl]alanine]	–
1.8 nM	3.5 nM	–	–	CC(c1ccc(O)cc1)C(CS)C(=O)N[C@@H](Cc1ccc(O)cc1)C(=O)O (stereo partly drawn) [Example 75, N-[2-Mercaptomethyl-3-(4-hydroxyphenyl)-1-oxobutyl]tyrosine]	–
1.9 nM	8.5 nM	–	–	CC(=O)SCC(C(=O)N[C@@H](C)C(=O)O)C(C)c1ccc(F)cc1 (stereo partly drawn) [Example 78, N-[2-Acetylthiomethyl-3-(4-fluorophenyl)-1-oxobutyl]alanine]	–
4.8 nM	5.9 nM	–	–	CC(=O)SC(C(=O)N[C@@H](Cc1ccc(O)cc1)C(=O)O)C(C)c1ccc(F)cc1 (stereo partly drawn) [Example 80, N-[2-Acetylthio-3-(4-fluorophenyl)-1-oxobutyl]tyrosine]	–
3 nM	5 nM	–	–	CC(c1ccc(F)c(F)c1)C(CS)C(=O)N[C@@H](C)C(=O)O (stereo partly drawn) [Example 82, N-[2-Mercaptomethyl-3-(3,4-difluorophenyl)-1-oxobutyl]alanine]	–
6.3 nM	3.5 nM	–	–	CC(c1ccc(F)c(F)c1)C(CS)C(=O)N[C@@H](Cc1ccc(O)cc1)C(=O)O (stereo partly drawn) [Example 84, N-[2-Mercaptomethyl-3-(3,4-difluorophenyl)-1-oxobutyl]tyrosine]	–
1 nM	3 nM	–	–	CC(c1ccccc1)C(CSS)C(=O)N[C@@H](Cc1ccc(O)cc1)C(=O)O (stereo partly drawn) [Example 88(A), N-(2-Mercaptothiomethyl-1-oxo-3-phenylbutyl)tyrosine]	–
